We go through three compounds from patent EP4741383A1, “COMPOUND AND USE THEREOF AS ANTI-CANCER DRUG” (Tyligand Bioscience (Shanghai) Limited, priority 2023, dated 2025).

T1 sequence (Q12809 whole entry): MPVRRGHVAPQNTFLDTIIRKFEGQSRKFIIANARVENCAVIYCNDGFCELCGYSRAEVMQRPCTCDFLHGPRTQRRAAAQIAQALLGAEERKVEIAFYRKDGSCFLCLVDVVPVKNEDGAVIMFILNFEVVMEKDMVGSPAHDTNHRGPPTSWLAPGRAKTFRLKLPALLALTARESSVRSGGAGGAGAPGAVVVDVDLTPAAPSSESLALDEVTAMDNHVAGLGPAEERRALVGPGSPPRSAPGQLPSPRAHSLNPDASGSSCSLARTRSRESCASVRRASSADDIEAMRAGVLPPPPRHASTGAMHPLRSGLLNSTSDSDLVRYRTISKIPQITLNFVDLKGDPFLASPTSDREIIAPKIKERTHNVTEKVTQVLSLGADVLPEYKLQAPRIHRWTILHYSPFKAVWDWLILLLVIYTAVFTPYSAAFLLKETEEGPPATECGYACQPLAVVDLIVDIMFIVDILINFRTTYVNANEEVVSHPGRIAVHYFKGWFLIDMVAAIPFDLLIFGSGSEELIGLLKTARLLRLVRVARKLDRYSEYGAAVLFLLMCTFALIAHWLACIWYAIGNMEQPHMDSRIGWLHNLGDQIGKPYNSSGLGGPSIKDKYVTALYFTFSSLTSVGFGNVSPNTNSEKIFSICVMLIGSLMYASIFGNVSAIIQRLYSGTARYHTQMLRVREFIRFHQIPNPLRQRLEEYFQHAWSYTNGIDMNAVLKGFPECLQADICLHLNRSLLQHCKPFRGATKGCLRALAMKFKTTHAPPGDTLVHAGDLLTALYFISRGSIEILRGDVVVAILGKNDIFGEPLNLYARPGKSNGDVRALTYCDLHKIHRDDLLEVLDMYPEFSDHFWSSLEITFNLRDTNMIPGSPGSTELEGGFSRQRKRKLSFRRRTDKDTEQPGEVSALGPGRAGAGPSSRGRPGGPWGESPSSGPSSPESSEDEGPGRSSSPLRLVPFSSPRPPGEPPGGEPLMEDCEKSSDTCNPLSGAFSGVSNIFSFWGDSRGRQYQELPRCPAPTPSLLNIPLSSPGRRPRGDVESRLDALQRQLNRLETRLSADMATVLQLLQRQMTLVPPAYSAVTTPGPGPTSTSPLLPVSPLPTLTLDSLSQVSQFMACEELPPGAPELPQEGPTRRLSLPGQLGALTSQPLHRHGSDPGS

This data set concerns the target T1, hERG potassium channel (Homo sapiens, UniProt Q12809).
T1 construct: host or cells: HEK-293
Description: hERG manual patch-clamp assay in HEK-293 cells. The data set is classed as cell-based. To be noted: HEK-293 cells stably expressing the hERG potassium channel, HEK-293 cells stably expressing hERG. The source says:
This experiment was a non-GLP trial conducted with reference to GLP guidelines and in accordance with the following technical guidelines: National Medical Products Administration: Technical Guidelines for Non-Clinical Studies of Potential Effects of Drugs on QT Interval Prolongation (2014), and ICH S7B Guidelines for Non-Clinical Evaluation of Potential Drug-Induced Delayed Ventricular Repolarization (QT Interval Prolongation) in Humans (2005).
Sample preparation: the weighed test substance was prepared into a 5 mM or 10 mM stock solution with DMSO, then diluted with DMSO to a 3.33 mM diluent. The stock solution was then diluted with extracellular fluid to prepare a 10 µM working solution, ensuring a DMSO concentration of 0.3%. The solution was sonicated for 20 min. The solubility of the test sample was visually inspected; all concentrations dissolved completely without any visible precipitate.
Preparation of positive control: 3.99 mg Cisapride (positive control) was prepared into a 10 mM stock solution using 807.96 µL DMSO. This stock solution was then successively diluted with DMSO to 1000, 333.33, 33.33, 3.33, and 0.33 µM dilutions. Before testing, 30 µL of each of the last four dilutions was added to 10 mL of extracellular fluid, ensuring a DMSO concentration of 0.3%. The final working solution concentrations of Cisapride were 1000, 100, 10, and 1 nM. Cisapride was visually inspected for solubility; all concentrations dissolved completely without any visible precipitate.
The blank control stock solution (DMSO) should be stored at room temperature. The blank control working solution should be prepared on the same day and stored at room temperature. The test substance and positive control stock solutions should be stored at -20 °C. […]
The hERG activity of the representative compounds of this disclosure was detected using conventional manual patch-clamp techniques in the art (Patch-Clamp Methods and Protocols, 2014, 2nd edition, Humana Press, edited by Marzia Martina and Stefano Taverna).
On the technique in general: hERG is a cardiac potassium channel; its block is linked to QT prolongation.
Regarding `CC1(n2c(-c3ccc(NC(=O)C(=O)Nc4ccc(N5CCC6(CCOC6)CC5)cc4)cc3)cc3cc(F)c(-c4nnn[nH]4)cc32)CCC1` [Example 68], the inhibition at 10 µM was 8.79%.

As to `O=C(Nc1ccc(-c2cc3cc(F)c(-c4nnn[nH]4)cc3n2C2CCC2)cc1)C(=O)Nc1ccc(N2CCC(CO)CC2)cc1` [Example 23], the inhibition at 10 µM is -0.72%.

For `O=C(Nc1ccc(-c2cc3cc(F)c(-c4nnn[nH]4)cc3n2C2CCC2)cc1)C(=O)Nc1ccc(N2CCC3(CCOC3)CC2)cc1` [Example 67], the inhibition at 10 µM is 16.9%.

By inhibition is commonly meant the change of the read-out against control, counted positive when it falls.
